Source: US20150315241A1, “Antibiotic Peptides” (priority 2007, published 2015)
Values after ≈ are worked out from the molar mass of the structure shown. Where a SMILES comes first, the peptide text is derived from it. Where no end group is shown, it is not given here. [ ]: non-standard residue; d: D form. The star is where a group is joined. hArg = N=C(N)NCCCC[C@H](N)C(=O)O; X1 = CN(C)C(=NCC(=O)*)N(C)C

Tests used:
E. coli BL 21 AI = test: Growth inhibition assay (MIC); format: cell-based, Escherichia coli; conditions: 1% TSB, 37° C., 20 hrs
Description: (§1) The minimal inhibition concentrations (MIC) of the apidaecin-derived peptides and peptide-derivatives were determined by a growth inhibition assay using a serial peptide dilution in sterilized round-bottom 96-well plates (polystyrene, U-bottom, Greiner Bio-One GmbH) with a final volume of 100 μL per well. The bacteria, e.g., E. coli BL21 A1, were grown in nutrient broth (NB, Carl Roth GmbH+Co. KG, Karlsruhe, Germany) at 37° C. over night. To each well of the 96-well plate, 50 μL of the overnight culture adjusted to 5×10^6 CFU/mL in 1% TSB were added. Lyophilized peptides and peptidomimetics were dissolved in 1% TSB (tryptic soy broth) or water to give a final concentration of 250 μg/mL. Fifty μL of the peptide or peptidomimetics solution were added to the first well of a row on the plate and mixed. Fifty μL of the first well containing the peptide solution were transferred to the second well, mixed and again 50 μL transferred to the next well and so on. Thereby, a two-fold dilution series was obtained starting at 250 μg/mL in the first well down to 120 ng/mL in the 12th well of a row giving a final peptide or peptidomimetics concentration from 125 μg/mL (well 1) to 60 ng/mL (well 12). Plates were incubated at 37° C. for 20 hrs. The absorbance was measured at 595 nm using a TECAN micro plate spectrophotometer (Tecan, Germany). All peptides and peptidomimetics were measured in triplicates. Sterilized water was used as a negative control.
(§2) The bacteria strains were tested: • Eschericha coli 1103, 10233, BL 21 AI, DC 2, • Klebsiella pneumoniae 681, • Micrococcus luteus ATCC 10240, • Mycobacterium vaccae • Bactillus subtillis 347.

M. luteus ATCC 10240 = format: cell-based, Micrococcus luteus; conditions: ATCC 10240, 20 h
Description: as §1, §2

E. coli 1103 = format: cell-based, Escherichia coli; conditions: 1103, 20 h
Description: as §1, §2

K. pneumonia 681 = format: cell-based, Klebsiella pneumoniae; conditions: 20 h
Description: as §1, §2

B. subtilis 347 = format: cell-based, Bactillus subtillis; conditions: 347, 20 h
Description: as §1, §2

S. typhi S5 = format: cell-based, Salmonella typhi; conditions: S5, 20 h
Description: as §1
(§3) The following multidrug resistant bacteria strains were tested: • Eschericha coli 45849 and D31, • Klebsiella pneumoniae 123132 and K6, • Salmonella typhi S5 and Salmonella enterica subsp. enterica serovar Typhimurium (ATCC 700408), • Rhizobium radiobacter (ATCC 15955 deposited as Agrobacterium tumefaciens).

E. coli D31 = format: cell-based, Escherichia coli; conditions: D31, 20 h
Description: as §1, §3

[1] = tested on: S. enterica subsp. Enterica serovar. typhi G10215 ATCC 700408; format: cell-based, Salmonella enterica; conditions: ATCC 700408, 20 h
Description: as §1, §3

[2] = tested on: K. Pneumonia K6, ATCC 700603; test: Growth inhibition assay (MIC); format: cell-based, Klebsiella pneumoniae; conditions: multidrug resistant strain; 1% TSB, 37° C., 20 hrs
Description: as §1, §3

Row | Compound | MIC E. coli BL 21 AI (E. coli BL 21 AI) | MIC M. luteus ATCC 10240 (M. luteus ATCC 10240) | MIC E. coli D31 (E. coli D31) | MIC S. enterica subsp. Enterica serovar. typhi G10215 ATCC 700408 [1] | other results
1 | CC[C@H](C)[C@H](NC(=O)[C@H](Cc1ccc(O)cc1)NC(=O)[C@@H](NC(=O)[C@@H]1CCCN1C(=O)[C@H](CCCNC(=N)N)NC(=O)[C@H](CC(N)=O)NC(=O)[C@H](CC(N)=O)NC(=O)CNC(C)=O)C(C)C)C(=O)N1CCC[C@H]1C(=O)N[C@@H](CCC(N)=O)C(=O)N1CCC[C@H]1C(=O)N[C@@H](CCCNC(=N)N)C(=O)N1CCC[C@H]1C(=O)N1CCC[C@H]1C(=O)N[C@@H](Cc1c[nH]cn1)C(=O)N1CCC[C@H]1C(=O)N[C@@H](CCCCNC(=N)N)C(=O)N[C@@H](CC(C)C)C(N)=O [compound 132] (Ac-GNNRPVYIPQPRPPHP[hArg]L-NH2) | 32 µg/mL (≈ 14.8 µM) | 32 µg/mL (≈ 14.8 µM) |  |  | MIC E. coli 1103 (E. coli 1103): 64 µg/mL (≈ 29.6 µM); MIC K. pneumonia 681 (K. pneumonia 681): 32 µg/mL (≈ 14.8 µM); MIC B. subtilis 347 (B. subtilis 347): 128 µg/mL (≈ 59.2 µM)
2 | CC[C@H](C)[C@H](NC(=O)[C@H](Cc1ccc(O)cc1)NC(=O)[C@@H](NC(=O)[C@@H]1CCCN1C(=O)[C@H](CCCNC(=N)N)NC(=O)[C@H](CC(N)=O)NC(=O)[C@H](CC(N)=O)NC(=O)CN=C(N(C)C)N(C)C)C(C)C)C(=O)N1CCC[C@H]1C(=O)N[C@@H](CCC(N)=O)C(=O)N1CCC[C@H]1C(=O)N[C@@H](CCCNC(=N)N)C(=O)N1CCC[C@H]1C(=O)N1CCC[C@H]1C(=O)N[C@@H](Cc1c[nH]cn1)C(=O)N1CCC[C@H]1C(=O)N[C@@H](CCCCNC(=N)N)C(=O)N[C@@H](CC(C)C)C(N)=O [compound 133] (X1-NNRPVYIPQPRPPHP[hArg]L-NH2; N-terminus and C-terminus assumed) |  | 32 µg/mL (≈ 14.4 µM) | 16 µg/mL (≈ 7.21 µM) | 2 µg/mL (≈ 0.901 µM) | MIC S. typhi S5 (S. typhi S5): 16 µg/mL (≈ 7.21 µM); MIC E. coli 1103 (E. coli 1103): 16 µg/mL (≈ 7.21 µM); MIC K. pneumonia 681 (K. pneumonia 681): 8 µg/mL (≈ 3.6 µM)
3 | GNNRPVYIPQPRPPHPL-NH2 [compound 43] |  |  | >128 µg/mL | >64 µg/mL | MIC K. Pneumonia K6, ATCC 700603 [2]: >64 µg/mL
4 | GNNRPVYIPQPRPPHPRF-NH2 [compound 44] |  |  | 128 µg/mL | 4 µg/mL | MIC K. Pneumonia K6, ATCC 700603 [2]: 64 µg/mL
5 | H-GNNRPVYIPQPRPPHPAL-NH2 [compound 139] | >125 µg/mL | >125 µg/mL |  |  | 
6 | H-GNNRPVYIPQPRPPHPR-OH [compound 144] | >125 µg/mL | >125 µg/mL |  |  | 
7 | H-GNNRPVYIPRPRPPHPRLV-OH [compound 69] | 7.81 µg/mL | 0.24 µg/mL |  |  | 
8 | H-NNRPVYIPQPRPPHPRI-NH2 [compound 92] | 3.91 µg/mL | 31.25 µg/mL |  |  | 
9 | H-RPVYIPQPRPPHPRL-NH2 [compound 142] | 125 µg/mL | 125 µg/mL |  |  | 
